{"source": "patent US9187523B2", "about": "(priority 2006, dated 2015)", "target": "plasminogen activator (Pla) (Yersinia pestis, UniProt P17811)", "sequence (P17811 21-312 limits assumed)": "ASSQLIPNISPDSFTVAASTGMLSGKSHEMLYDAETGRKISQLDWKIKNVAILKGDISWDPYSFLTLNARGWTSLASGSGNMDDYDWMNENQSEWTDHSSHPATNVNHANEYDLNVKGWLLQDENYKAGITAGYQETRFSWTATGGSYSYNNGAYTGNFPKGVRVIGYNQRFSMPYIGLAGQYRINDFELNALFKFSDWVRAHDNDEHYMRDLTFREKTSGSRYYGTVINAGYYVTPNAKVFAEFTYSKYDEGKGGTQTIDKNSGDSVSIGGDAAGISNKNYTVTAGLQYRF", "format": "biochemical", "data": [{"substance": "pepstatin A", "values": [{"measurement": "block of plasminogen activator activity", "value": "did not block"}]}]}
